In patent publication US7112654B2, “Ligand for vascular endothelial growth factor receptor” (Supratek Pharma Inc., priority 2001, dated 2006):
pKd: −log10 of the molar value. Ends that are not written are not given here.

Legend:
Flt-1 = Flt-1 (Homo sapiens, UniProt P17948); conditions: cited from earlier work
endothelial cells = conditions: VEGF binding to KDR; cited from earlier work
[1] = target: VEGF receptor-1 (human Flt-1/Fc chimera) (Homo sapiens, UniProt P17948); assay: Phage binding assay to immobilized VEGF receptor-1 (anti-M13 ELISA); conditions: 10^9 virions/200 μl, overnight at 4 degree
Chain of VEGF receptor-1 (human Flt-1/Fc chimera) (P17948 27-687 isoform P17948-2 limits assumed): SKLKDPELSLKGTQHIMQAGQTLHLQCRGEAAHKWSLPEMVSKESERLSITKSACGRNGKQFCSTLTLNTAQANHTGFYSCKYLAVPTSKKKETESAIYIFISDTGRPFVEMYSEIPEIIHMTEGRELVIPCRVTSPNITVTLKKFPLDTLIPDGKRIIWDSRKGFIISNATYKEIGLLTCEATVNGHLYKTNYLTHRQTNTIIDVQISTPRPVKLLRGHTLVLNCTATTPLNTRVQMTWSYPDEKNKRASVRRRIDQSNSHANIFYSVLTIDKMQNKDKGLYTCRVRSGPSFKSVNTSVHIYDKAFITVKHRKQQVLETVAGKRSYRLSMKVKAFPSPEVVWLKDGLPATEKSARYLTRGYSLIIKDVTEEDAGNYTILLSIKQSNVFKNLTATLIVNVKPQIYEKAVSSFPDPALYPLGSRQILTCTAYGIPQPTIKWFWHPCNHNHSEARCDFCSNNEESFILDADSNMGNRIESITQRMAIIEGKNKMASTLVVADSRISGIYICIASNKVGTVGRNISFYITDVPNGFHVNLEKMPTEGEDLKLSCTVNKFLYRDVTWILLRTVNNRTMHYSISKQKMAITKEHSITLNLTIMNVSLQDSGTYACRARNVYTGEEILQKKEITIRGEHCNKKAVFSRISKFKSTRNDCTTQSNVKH

hFlt-1 = hFlt-1 (Homo sapiens, UniProt P17948); assay: Binding of alanine-substituted and truncated phage clones to immobilized Flt-1 receptor by ELISA; conditions: relative to clone V5.2
Chain of hFlt-1 (P17948 27-687 isoform P17948-2 limits assumed): as above

Chain of Flt-1 (P17948 27-1338, species assumed): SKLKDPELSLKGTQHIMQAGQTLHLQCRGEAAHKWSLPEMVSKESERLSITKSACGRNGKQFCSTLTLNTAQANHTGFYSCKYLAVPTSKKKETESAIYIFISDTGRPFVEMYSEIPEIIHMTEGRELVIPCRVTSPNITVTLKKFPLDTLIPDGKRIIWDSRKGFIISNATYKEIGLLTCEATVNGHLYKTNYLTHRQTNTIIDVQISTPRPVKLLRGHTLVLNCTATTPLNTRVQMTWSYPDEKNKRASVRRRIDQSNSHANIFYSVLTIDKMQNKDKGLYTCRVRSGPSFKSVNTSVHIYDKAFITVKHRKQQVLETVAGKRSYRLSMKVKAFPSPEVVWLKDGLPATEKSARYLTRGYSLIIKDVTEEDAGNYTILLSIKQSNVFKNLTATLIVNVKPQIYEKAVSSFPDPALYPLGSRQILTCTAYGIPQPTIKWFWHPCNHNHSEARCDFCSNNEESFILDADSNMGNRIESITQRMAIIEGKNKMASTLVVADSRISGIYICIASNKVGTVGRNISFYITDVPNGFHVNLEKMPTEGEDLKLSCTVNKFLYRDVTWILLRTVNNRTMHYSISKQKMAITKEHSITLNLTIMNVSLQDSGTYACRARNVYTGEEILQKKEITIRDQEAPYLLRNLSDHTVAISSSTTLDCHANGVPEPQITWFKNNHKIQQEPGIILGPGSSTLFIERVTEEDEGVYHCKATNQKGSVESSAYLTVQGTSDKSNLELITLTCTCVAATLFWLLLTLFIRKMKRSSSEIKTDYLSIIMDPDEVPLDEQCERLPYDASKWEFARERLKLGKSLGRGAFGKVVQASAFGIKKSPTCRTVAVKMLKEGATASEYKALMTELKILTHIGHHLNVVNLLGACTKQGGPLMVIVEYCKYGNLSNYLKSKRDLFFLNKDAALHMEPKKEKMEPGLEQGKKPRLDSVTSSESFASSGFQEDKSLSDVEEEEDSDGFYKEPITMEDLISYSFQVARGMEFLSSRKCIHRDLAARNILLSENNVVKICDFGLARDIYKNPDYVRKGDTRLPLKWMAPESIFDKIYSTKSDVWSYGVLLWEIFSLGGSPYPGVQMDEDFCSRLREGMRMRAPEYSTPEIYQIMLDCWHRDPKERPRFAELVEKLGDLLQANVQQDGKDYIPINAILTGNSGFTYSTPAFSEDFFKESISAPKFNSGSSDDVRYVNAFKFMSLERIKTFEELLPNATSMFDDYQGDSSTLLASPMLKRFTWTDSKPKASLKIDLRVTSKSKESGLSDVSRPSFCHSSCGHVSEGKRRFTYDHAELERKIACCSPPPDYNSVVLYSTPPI

| Substance | ABSORBANCE, A 405 [1] | Binding to hFlt-1 in % (hFlt-1) | other results |
| --- | --- | --- | --- |
| VEGF |  |  | pKd (Flt-1): 10.70 to 11.00; ED50 (endothelial cells): 0.1 to 1 ng/mL |
| FVGGWLVPEDERLYPE [V40] | 0.025 ± 0.014 |  |  |
| EIEWYSW (displayed on phage; Chemical peptide synthesis and biosynthesis utilizing E. coli) [V5.2/1] |  | 6.55 ± 15.81% |  |
| PEPEVRLSPPGHIQSL [V5.10] | 0.039 ± 0.013 |  |  |
| NGYEIEAYSAVTHGMY (displayed on phage; Chemical peptide synthesis and biosynthesis utilizing E. coli) [W710/A] |  | 62.15 ± 22.16% |  |
| NGYAIAWYSWVTHGMY (displayed on phage; Chemical peptide synthesis and biosynthesis utilizing E. coli) [E46/A] |  | 44.46 ± 7.05% |  |
